Data reported in patent publication US11873320B2 (REATA PHARMACEUTICALS HOLDINGS, LLC, priority 2013, dated 2024).
Read-outs that look alike come from different tables or passages of the source.

Assays:
CYP2B6 = assay: CYP450 induction in cultured human hepatocytes: CYP2B6; type: in vitro ADME; settings: up to 3 μM
NQO1 protein = assay: Nrf2 target protein levels in SH-SY5Y cells; type: cell-based, human; settings: dose-dependent
Experimental: HMOX1 protein was not detected in untreated or RTA 408-treated SH-SY5Y cells. […] The same amount of 63170 (54.6 nM) was required.

CYP1A2 = assay: CYP450 induction in cultured human hepatocytes: CYP1A2; type: in vitro ADME; settings: up to 3 μM
cynomolgus monkeys [1] = assay: cardiovascular evaluation in conscious cynomolgus monkeys (telemetry); type: in vivo, monkey
Experimental: Animals were instrumented with telemetry transmitters for measurement of body temperature, blood pressure, heart rate, and electrocardiogram (ECG) evaluation. Body temperature, systolic, diastolic, and mean arterial blood pressure, heart rate, and ECG parameters (QRS duration and RR, PR, and QT intervals) were monitored continuously from at least 2 hours pre-dose until at least 24 hours post-dose. ECG tracings were printed at designated time points from the cardiovascular monitoring data and were qualitatively evaluated by a board-certified veterinary cardiologist.
Observations for morbidity, mortality, injury, and availability of food and water were conducted at least twice daily for all animals. Clinical observations were conducted pre-dose, approximately 4 hours post-dose, and following completion of the cardiovascular monitoring period. Body weights were measured and recorded on the day prior to each treatment administration.

H6PD, PGD, TKT, ME1 mRNA = assay: expression of genes involved in NADPH synthesis, HCT-116 cells; type: cell-based; settings: 24 hours
ovalbumin-induced asthma = ovalbumin-induced asthma in mice; type: in vivo, mouse
Excerpt: Mice were sensitized with an IP injection of ovalbumin and aluminum hydroxide on Day 0 and Day 14 and challenged intranasally with ovalbumin in saline on Days 14, 25, 26, and 27. […] An increase in the number of T cells and B cells was also observed in the vehicle-treated mice.

NQO1 and HMOX1 protein = assay: Nrf2 target protein levels in BV2 cells; type: cell-based, mouse; settings: concentrations up to 125 nM
[2] = metabolism in human liver microsomes
cynomolgus monkeys [3] = settings: for ALP (U/L) / ALT (U/L) / AST (U/L) / Albumin / BUN / Chol / Cr / Glucose / TG / Tot Bil / Tot Prot: Day 14
[4] = tested on: RANKL-induced TRAP activity and formation of osteoclasts; assay: RANKL-induced osteoclastogenesis in RAW264.7; type: cell-based; settings: Mus musculus, Osteoclast; 2 h pretreatment, 50 ng/mL RANKL
Excerpt: Osteoclastogenesis is a multi-step differentiation process that results from the binding of RANKL to its receptor, RANK, on cells of hematopoietic origin.

rats = assay: 28-day toxicity study in rats; type: in vivo, rat
Excerpt: One hypothesis for this effect is that AIMs directly or indirectly increase transaminase gene expression in the absence of cellular toxicity.

CYP3A4 = assay: CYP450 induction in cultured human hepatocytes: CYP3A4; type: in vitro ADME; settings: up to 3 μM
MRP-1 = MRP-1 (Homo sapiens, UniProt P33527); assay: in vitro efflux by MRP-1; settings: not told
[5] = tested on: bleomycin-induced pulmonary fibrosis
[6] = topical administration pharmacokinetics in rats; type: in vivo, rat; settings: 0.01 to 3% in sesame oil
Excerpt: The topical administration was formulated as a suspension in sesame oil.

[7] = tested on: cigarette smoke-induced COPD; assay: cigarette smoke-induced COPD in mice; type: in vivo, mouse
Experimental: At the end of the study, lung tissue and BALF were collected for analysis of inflammatory infiltrates and cytokines. […] An AIM analog (63355) was tested in the same study for comparison. 63355 is a compound of the formula: […]

Nrf2 target genes = assay: Nrf2 target gene expression in BEAS-2B bronchial epithelial cells; type: cell-based, human; settings: 18 hours

Chain of MRP-1 (P33527 whole entry): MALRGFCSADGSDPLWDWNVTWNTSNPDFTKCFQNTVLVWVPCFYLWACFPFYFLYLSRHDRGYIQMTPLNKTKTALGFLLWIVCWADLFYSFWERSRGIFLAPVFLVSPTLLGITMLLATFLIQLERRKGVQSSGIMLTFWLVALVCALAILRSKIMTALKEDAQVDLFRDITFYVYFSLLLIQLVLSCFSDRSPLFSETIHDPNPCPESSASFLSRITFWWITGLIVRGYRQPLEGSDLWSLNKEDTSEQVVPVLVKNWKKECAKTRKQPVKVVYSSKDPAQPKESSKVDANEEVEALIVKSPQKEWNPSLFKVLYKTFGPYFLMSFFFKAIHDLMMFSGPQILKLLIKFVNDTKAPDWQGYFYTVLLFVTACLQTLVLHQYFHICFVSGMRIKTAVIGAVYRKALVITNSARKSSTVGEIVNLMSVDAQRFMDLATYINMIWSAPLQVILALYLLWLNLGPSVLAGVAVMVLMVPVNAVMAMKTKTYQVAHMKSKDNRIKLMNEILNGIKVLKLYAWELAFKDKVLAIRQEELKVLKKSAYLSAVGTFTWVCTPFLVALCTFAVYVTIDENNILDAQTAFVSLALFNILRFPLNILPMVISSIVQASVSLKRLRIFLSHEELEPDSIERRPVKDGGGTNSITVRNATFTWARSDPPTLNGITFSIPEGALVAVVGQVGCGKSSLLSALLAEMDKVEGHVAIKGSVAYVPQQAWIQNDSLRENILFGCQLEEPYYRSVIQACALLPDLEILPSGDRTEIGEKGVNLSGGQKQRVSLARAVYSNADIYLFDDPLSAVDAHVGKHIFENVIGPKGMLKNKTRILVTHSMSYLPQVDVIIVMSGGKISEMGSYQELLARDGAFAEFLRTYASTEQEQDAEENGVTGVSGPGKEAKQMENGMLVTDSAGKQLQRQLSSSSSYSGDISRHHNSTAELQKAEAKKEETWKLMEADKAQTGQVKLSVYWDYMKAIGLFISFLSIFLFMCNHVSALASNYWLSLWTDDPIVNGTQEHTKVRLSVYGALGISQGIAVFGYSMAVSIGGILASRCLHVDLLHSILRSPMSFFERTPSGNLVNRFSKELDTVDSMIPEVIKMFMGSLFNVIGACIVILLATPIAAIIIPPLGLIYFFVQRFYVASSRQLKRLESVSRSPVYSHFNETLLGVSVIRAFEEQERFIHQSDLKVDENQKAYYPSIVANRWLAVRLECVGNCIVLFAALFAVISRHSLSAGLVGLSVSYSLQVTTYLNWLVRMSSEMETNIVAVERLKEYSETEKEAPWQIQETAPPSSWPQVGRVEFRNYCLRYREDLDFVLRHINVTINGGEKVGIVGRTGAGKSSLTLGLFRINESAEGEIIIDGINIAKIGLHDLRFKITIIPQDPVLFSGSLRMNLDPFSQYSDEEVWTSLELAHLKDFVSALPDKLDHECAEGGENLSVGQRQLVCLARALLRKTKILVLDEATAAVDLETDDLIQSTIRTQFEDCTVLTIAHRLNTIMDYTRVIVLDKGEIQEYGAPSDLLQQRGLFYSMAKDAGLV

In the case of `CC1(C)CC[C@]2(NC(=O)C(C)(F)F)CC[C@]3(C)[C@H](C(=O)C=C4[C@@]5(C)C=C(C#N)C(=O)C(C)(C)[C@@H]5CC[C@]43C)[C@@H]2C1` [RTA 408, N-((4aS,6aR,6bS,8aR,12aS,14aR,14bS)-11-cyano-2,2,6a,6b,9,9,12a-heptamethyl-10,14-dioxo-1,2,3,4,4a,5,6,6a,6b,7,8,8a,9,10,12a,14,14a,14b-octadecahydropicen-4a-yl)-2,2-difluoropropanamide], the “induction of enzyme activity” value (CYP2B6) is reported as “not an inducer”, the NQO1 protein levels (NQO1 protein) is reported as “increased NQO1 protein levels” and the “induction of enzyme activity” value (CYP1A2) is reported as “not an inducer”. The “increase in the corrected QT interval (average)” value (cynomolgus monkeys [1]; 100 mg/kg oral, not considered related to treatment) was 1.6%, the “effects on cardiovascular function” value (cynomolgus monkeys [1]; doses up to and including 100 mg/kg oral) was “no effects on cardiovascular function” and the “mRNA levels of H6PD, PGD, TKT, ME1” value (H6PD, PGD, TKT, ME1 mRNA) was “dose-dependent increase in expression of genes involved in NADPH synthesis”. For the same molecule, the “B cells within the airways” value (ovalbumin-induced asthma; 30 mg/kg) was “significantly reduced the number and percentage of B cells”, the “macrophages detected in the airways” value (ovalbumin-induced asthma; 3 and 30 mg/kg) was “significantly reduced the number of macrophages” and the “NQO1 and HMOX1 protein levels” value (NQO1 and HMOX1 protein) was “increased NQO1 and HMOX1 protein levels”. For the same molecule, the unique human metabolites [2] was “No unique human metabolites”, the parent molecule remaining ([2]; 60-minute incubation, NADPH and UGT) was < 10% and the “ALP (U/L)” value (cynomolgus monkeys [3]; 10 mg/kg) was 382 U/L. For the same molecule, the “ALT (U/L)” value (cynomolgus monkeys [3]; 10 mg/kg) was 46 U/L, the “AST (U/L)” value (cynomolgus monkeys [3]; 10 mg/kg) was 38 U/L and the “Albumin” value (cynomolgus monkeys [3]; 10 mg/kg) was 4 g/dL. The “BUN” value (cynomolgus monkeys [3]; 10 mg/kg) was 27 mg/dL, the “Chol” value (cynomolgus monkeys [3]; 10 mg/kg) was 144 mg/dL and the “Cr” value (cynomolgus monkeys [3]; 10 mg/kg) was 0.68 mg/dL. The “Glucose” value (cynomolgus monkeys [3]; 10 mg/kg) was 39 mg/dL, the “TG” value (cynomolgus monkeys [3]; 10 mg/kg) was 82 mg/dL and the “Tot Bil” value (cynomolgus monkeys [3]; 10 mg/kg) was 0.23 mg/dL. For the same molecule, the “Tot Prot” value (cynomolgus monkeys [3]; 10 mg/kg) was 7.2 g/dL, the “ALP (U/L)” value (cynomolgus monkeys [3]; 30 mg/kg) was 416 U/L and the “ALT (U/L)” value (cynomolgus monkeys [3]; 30 mg/kg) was 47 U/L. For the same molecule, the “AST (U/L)” value (cynomolgus monkeys [3]; 30 mg/kg) was 43 U/L, the “Albumin” value (cynomolgus monkeys [3]; 30 mg/kg) was 4 g/dL and the “BUN” value (cynomolgus monkeys [3]; 30 mg/kg) was 20 mg/dL. For the same molecule, the “Chol” value (cynomolgus monkeys [3]; 30 mg/kg) was 122 mg/dL, the “Cr” value (cynomolgus monkeys [3]; 30 mg/kg) was 0.58 mg/dL and the “Glucose” value (cynomolgus monkeys [3]; 30 mg/kg) was 53 mg/dL. For the same molecule, the “TG” value (cynomolgus monkeys [3]; 30 mg/kg) was 64 mg/dL, the “Tot Bil” value (cynomolgus monkeys [3]; 30 mg/kg) was 0.2 mg/dL and the “Tot Prot” value (cynomolgus monkeys [3]; 30 mg/kg) was 7.2 g/dL. The “ALP (U/L)” value (cynomolgus monkeys [3]; 100 mg/kg) was 390 U/L, the “ALT (U/L)” value (cynomolgus monkeys [3]; 100 mg/kg) was 43 U/L and the “AST (U/L)” value (cynomolgus monkeys [3]; 100 mg/kg) was 37 U/L. The “Albumin” value (cynomolgus monkeys [3]; 100 mg/kg) was 3.2 g/dL, the “BUN” value (cynomolgus monkeys [3]; 100 mg/kg) was 24 mg/dL and the “Chol” value (cynomolgus monkeys [3]; 100 mg/kg) was 93 mg/dL. For the same molecule, the “Cr” value (cynomolgus monkeys [3]; 100 mg/kg) was 0.55 mg/dL, the “Glucose” value (cynomolgus monkeys [3]; 100 mg/kg) was 32 mg/dL and the “TG” value (cynomolgus monkeys [3]; 100 mg/kg) was 61 mg/dL. The “Tot Bil” value (cynomolgus monkeys [3]; 100 mg/kg) was 0.18 mg/dL, the “Tot Prot” value (cynomolgus monkeys [3]; 100 mg/kg) was 6 g/dL and the “toxicity suggested by clinical chemistry data” value (cynomolgus monkeys [3]; 14 days) was “no obvious toxicity”. The “mRNAs of Nrf2 target genes in liver and lung” value (cynomolgus monkeys [3]; PO QD×14) was “induces Nrf2 target genes in monkey tissues”, the tolerability (cynomolgus monkeys [3]; all doses, 14 days) was “well-tolerated without adverse clinical signs” and the “Nrf2 target enzyme activity (NQO1, GSR) in various tissues” value (cynomolgus monkeys [3]; monkey, in vivo) was “induces Nrf2 target enzyme activity”. The IC50 [4] was 5 to 10 nM, the transaminases (rats) was “Transaminase elevations” and the “induction of enzyme activity” value (CYP3A4) was “not an inducer”. For the same molecule, the MRP-1 substrate status (MRP-1) was “not a substrate of MRP-1”, the “tolerability finding that stopped dosing on day 14” value ([5]; 30 mg/kg) was “excessive dehydration and diarrhea” and the “polymorphonuclear (PMN) cell infiltration into the lungs” value ([5]; 3 and 10 mg/kg, 28 days) was “significantly suppressed”. For the same molecule, the “collagen deposition (trichrome staining)” value ([5]; rat, in vivo) was “significant decrease in collagen deposition”, the “NQO1, Txnrd, Gsr, and Gst enzyme activity in lungs” value ([5]; rats exposed to bleomycin) was “significantly and dose-dependently increased” and the “plasma concentrations after topical administration” value [6] was “lower plasma concentrations relative to similar oral dosing”. The “lung Txnrd enzyme activity” value ([7]; 30 mg/kg) was “induced”, the “pro-inflammatory cytokines including KC and TNFα” value ([7]; doses as low as 3 mg/kg, two weeks) was “significant suppression of pro-inflammatory cytokines” and the “lung Gsr enzyme activity” value ([7]; mouse, in vivo) was “not altered”. For the same molecule, the “lung Gst enzyme activity” value ([7]; mouse, in vivo) was “decreased with treatment”, the “lung NQO1 enzyme activity decreased by cigarette smoke” value ([7]; mouse, in vivo) was “rescued this loss” and the “expression of Nrf2 target genes” value (Nrf2 target genes) was “dose-dependent increase of all Nrf2 target genes evaluated”.
